pIC50: −log10 of the molar value.
Tested on: S. Typhimurium PhoP-promoter GFP reporter counterscreen, fluorescence, 4 h
Test: S. Typhimurium GFP fluorescence modified counterscreen for PhoP regulon inhibitor project dose response (AID 1981)

| Structure (SMILES) | pIC50 |
| --- | --- |
| CCCCCCCCCCOC(=O)C[N+](C)(C)C/C=C(/C)Cl | 4.08 |
| CC[C@H]1OC(=O)C[C@@H](O)[C@H](C)[C@@H](O[C@@H]2O[C@H](C)C[C@H](N(C)C)[C@H]2O)[C@@H](CC=O)C[C@@H](C)C(=O)C=C[C@]2(C)O[C@H]2[C@@H]1C | 4.99 |
| Oc1ccc(Cl)cc1Cc1cc(Cl)ccc1O | 4.24 |
| COC(=O)C1C(O)C(C)C(O)C(C)/C=C\C=C(/C)C(=O)Nc2c(C)c(OC(C)=O)c3c(c2O)C(=O)C(C)=C2OCOC(=C23)/C(C)=C/C(C)(O)C(O)C(C)C1O (centres undefined) | 4.63 |
| NCC12CC3CC(C1)CC(c1ccc(Br)cc1)(C3)C2 | 4.26 |
| CO[C@H]1/C=C/O[C@@]2(C)Oc3c(C)c(O)c4c(O)c(c(C=NN5CCN(C)CC5)c(O)c4c3C2=O)NC(=O)/C(C)=C\C=C\[C@H](C)[C@H](O)[C@@H](C)[C@@H](O)[C@@H](C)[C@H](OC(C)=O)[C@@H]1C | 4.99 |
| CCn1cc(C(=O)NCCCO)c(=O)c2cc(F)c(N3CCN(C)CC3)cc21 | 4.34 |
| Nc1cccc2nc3ccccc3cc12 | 4.36 |
| COc1c(N2CCNC(C)C2)c(F)cc2c(=O)c(C(=O)O)cn(C3CC3)c12 (centres undefined) | 6.36 |
| COc1cccc(N(C(=O)c2ccco2)c2nc(-c3sc(NC(=O)c4ccco4)nc3C)cs2)c1 | 3.90 |
| O=[N+]([O-])c1ccc(O)c(/C=N/Nc2ccccn2)c1 | 4.90 |
| C=C1c2c(Cl)ccc(O)c2C(O)=C2C(=O)[C@]3(O)C(O)=C(C(N)=O)C(=O)[C@@H](N(C)C)[C@@H]3[C@@H](O)C12 (some centres undefined) | 6.03 |
| CCn1cc(C(=O)O)c(=O)c2cc(F)c(N3CCN(C(=S)NC(=O)c4ccc(F)c(F)c4)CC3)cc21 | 4.33 |
| Cc1[nH]n(-c2ccccc2)c(=O)c1C(C[N+](=O)[O-])c1ccc(F)cc1 (centres undefined) | 3.96 |
| CCOc1ccc(Nc2nc(N)c3ccccc3n2)cc1 | 3.96 |
| C1=C(CCNCc2ccccc2)CCCC1 | 5.01 |
| CCCC(=O)NC(c1ccc(N(C)C)cc1)c1ccc2cccnc2c1O (centres undefined) | 4.31 |
| Fc1ccccc1CCNCc1ccccc1 | 4.31 |
| CN1/C(=C\C=C\C2=[N+](C)c3ccc4ccccc4c3C2(C)C)C(C)(C)c2ccccc21 | 4.85 |
| O=C1C=C(O)c2c(O)cc(O)c(O)c2C1=O | 4.16 |
| NC(N)=N/N=C/c1ccc(OCc2ccc(Cl)cc2)cc1 | 4.25 |
| CCCCCCCNC(=O)C1(CC2CC(c3ccc(Cl)cc3)=NO2)CCNCC1 (centres undefined) | 4.32 |
| FC(F)(F)c1ccc2c(c1)N(CCCN1CCN(CCCl)CC1)c1ccccc1S2 | 3.84 |
| Oc1ccc(N=Cc2ccc(O)c(O)c2)cc1 | 4.17 |
| CCn1cc(C(=O)O)c(=O)c2cc(F)c(N3CCN(C(=S)NC(=O)c4c(OC)cccc4OC)CC3)cc21 | 4.20 |
| O=[N+]([O-])c1cc(O)c2ncccc2c1 | 4.80 |
| O=C1c2ccccc2C(=O)N1c1cccc(-c2csc(Nc3ccc4c(c3)OCO4)n2)c1 | 3.89 |

| Structure (SMILES) | pIC50 |
| --- | --- |
| CCN1/C(=C/C=C/c2sc3ccccc3[n+]2CC)Sc2ccccc21 | 4.43 |
| CCn1cc(C(=O)O)c(=O)c2cc(F)c(N3CCN(C(=S)NC(=O)c4ccccc4C)CC3)cc21 | 4.65 |
| CC1CCC(C(C)C)C(OC(=O)Cn2c(COc3ccccc3)[n+](C)c3ccccc32)C1 (centres undefined) | 4.07 |
| CC(C(=O)NC1C=CS(=O)(=O)C1)N1C(=O)/C(=C/c2ccc(Cl)cc2)SC1=S (centres undefined) | 3.85 |
| CCCCOc1ccc(Cc2cnc(N)nc2N)cc1 | 4.09 |
| Cc1sc2ncnc(N/N=C/c3ccccc3O)c2c1C | 4.16 |
| CCCCCCCCCCCCCCCC[N+](C)(C)CCN(Cc1ccc(OC)cc1)c1ncccn1 | 4.62 |
| CCOc1cccc(CNc2ccc(O)cc2)c1OCc1ccc(Cl)cc1Cl | 3.90 |
| O=C(NC1CCCC1)c1ccc(Cl)s1 | 4.06 |
| CS(=O)(=O)c1ccc([C@@H](O)[C@@H](CO)NC(=O)C(Cl)Cl)cc1 | 4.20 |
| CCN1CCN(C(c2cccnc2)c2cc(Cl)c3cccnc3c2O)CC1 (centres undefined) | 4.21 |
| COc1ccc(/C=N/Nc2cc(C)nc3c(C)cccc23)cc1 | 4.03 |
| NC1=NC[C@H](Cc2ccc(O)cc2)N1CCC12CC3CC(CC(C3)C1)C2 | 4.10 |
| CC1COc2c(N3CCN(C)CC3)c(F)cc3c(=O)c(C(=O)O)cn1c23 (centres undefined) | 6.25 |
| Cc1ccc(-c2c[n+](CC(=O)Nc3nc(-c4ccc(F)cc4)cs3)c3n2CCC3)cc1 | 4.14 |
| O=C(NNC(=O)c1cnccn1)c1ccc(Cl)cc1 | 4.05 |
| Nc1nonc1C(=O)N/N=C/c1cc(Br)ccc1O | 4.89 |
| COc1ccc(C(C[N+](=O)[O-])C2(c3ccc(OC)c(OC)c3)C(=O)c3ccccc3C2=O)cc1 (centres undefined) | 4.63 |
| COc1ccc(/C=N/Nc2cc(C)nc3ccccc23)cc1 | 4.07 |
| Nc1[nH]c(=O)ncc1F | 4.98 |
| O=c1[nH][nH]c(-c2ccccc2O)c1C(C[N+](=O)[O-])c1ccc(Br)cc1 (centres undefined) | 4.18 |
| CCCC(=O)NC(c1ccccc1)c1ccc2cccnc2c1O (centres undefined) | 4.49 |
| O=S1(=O)Nc2c(ccc3cccnc23)-c2ccccc21 | 5.52 |
| O=C(Nc1ccccc1)Nc1ncc([N+](=O)[O-])s1 | 4.27 |
| O=C(/C=C/c1ccco1)Oc1cc(Br)cc(/C=N/NC(=O)c2ccccc2O)c1 | 3.87 |
| CN1CCN(c2cc3c(cc2F)c(=O)c(C(=O)O)cn3CCF)CC1 | 6.29 |
| Nc1ccc(Nc2ccccc2)cc1 | 4.04 |

| Structure (SMILES) | pIC50 |
| --- | --- |
| O=C(N/N=C/c1ccc(O)cc1O)C(=O)N/N=C/c1ccc(O)cc1O | 4.29 |
| Cc1c2ccncc2c(C)c2c1[nH]c1ccccc12 | 4.16 |
| CCCCCCCCCCOC(=O)Cn1c(COc2ccc(Cl)cc2)[n+](C)c2ccccc21 | 4.57 |
| COc1ccccc1CNCC(O)Cn1c2ccccc2c2ccccc21 (centres undefined) | 4.05 |
| OCCN1CCN(Cc2cc(Cl)c3cccnc3c2O)CC1 | 3.98 |
| C=CC#CC[N+]1(CC#Cc2ccccc2)CCOCC1 | 4.52 |
| Cc1ccc(S(=O)(=O)Nc2cc(Cl)c(O)c3ncccc23)cc1 | 4.43 |
| CC(=O)NC(c1ccc2ccccc2c1)c1ccc2cccnc2c1O (centres undefined) | 4.34 |
| CCCCCCCCCC[N+](C)(C)CC/C=C1/c2ccccc2Sc2ccc(Cl)cc21 | 4.40 |
| CNc1cc(Cl)c2nonc2c1[N+](=O)[O-] | 3.94 |
| CCCCCCCCCn1c2c(c(=N)c3c1CCC3)CCCC2 | 4.27 |
| COC(=O)C(C)NC(=S)N1CCN(c2c(F)cc3c(=O)c(C(=O)O)cn(C4CC4)c3c2OC)CC1C (centres undefined) | 4.22 |
| Cc1cc(C(=O)N/N=C/c2ccc([N+](=O)[O-])s2)n[nH]1 | 4.44 |
| Oc1ccccc1NCC(O)Cn1ccc2ccccc21 (centres undefined) | 3.89 |
| CCCCCCCCCCOC(=O)Cn1c(COc2ccccc2OC)[n+](C)c2ccccc21 | 4.43 |
| CCn1cc(C(=O)O)c(=O)c2cc(F)c(N3CCN(C(=S)NC(=O)c4ccc(F)cc4)CC3)cc21 | 4.27 |
| CCCCOc1ccc(Br)cc1CSC(=N)N | 4.01 |
| CCOC(=O)Cc1csc(NC(=O)NC2(C(F)(F)F)Oc3cc(Cl)c(Cl)cc3O2)n1 | 4.17 |
| Nc1nc2ccccc2n1Cc1ccc(Cl)c(Cl)c1 | 4.07 |
| CCCc1nnc(NC(=O)c2cn(CC)c3cc(N4CCN(C)CC4)c(F)cc3c2=O)s1 | 3.96 |
| c1ccc(-c2cccc(-c3ccccn3)n2)nc1 | 4.78 |
| COc1cc(C)c(Cc2cnc(N)nc2N)cc1OC | 5.52 |
| O=C1OC(/C(=C\Nc2ccc(F)cc2F)[N+](=O)[O-])c2ccccc21 (centres undefined) | 4.74 |
| CC(C)NC1=C(Cl)C(=O)c2ccccc2C1=O | 4.23 |
| CCCCCCCCCCCCCCCCn1cc[n+](CC(C)=O)c1 | 4.06 |

From PubChem BioAssay AID1981 (Southern Research Specialized Biocontainment Screening …, 2009)
